Experimental data from publication PMC12090182, “Repurposing of the RIPK1-Selective Benzo[1,4]oxazepin-4-one Scaffold for the Development of a Type III LIMK1/2 Inhibitor” (ACS Chemical Biology, 2025).
Read-outs that look alike come from different tables or passages of the source.

Legend:
[1] = Pharmacokinetic screening in mice (IV and PO, cassette dosing); type: in vivo, mouse; conditions: plasma
Procedure: Test compounds were administered intravenously (0.1 mg mL^–1/kg) or orally (1 mg/5 mL/kg) by cassette dosing to nonfasted mice. After administration, blood samples were collected and centrifuged to obtain the plasma fraction. The plasma samples were deproteinized followed by centrifugation. The compound concentrations in the supernatant were analyzed by LC/MS/MS.

AKT3 = AKT3 (Homo sapiens, UniProt Q9Y243); experiment: scanMAX KINOMEscan (Eurofins); type: binding; conditions: read-out: Percent Control
Source text: (§1) Supplement cb5c00097_si_002.xlsx, sheet "Table S6 (Eurofins Selectivity)" | column: Percent Control

BMX = BMX (Homo sapiens, UniProt P51813); experiment: scanMAX KINOMEscan (Eurofins); type: binding; conditions: read-out: Percent Control
Source text: as §1

CAMK2B = CAMK2B (Homo sapiens, UniProt Q13554); experiment: scanMAX KINOMEscan (Eurofins); type: binding; conditions: 1000 nM, read-out: Percent Control
Source text: as §1

CDK4-cyclinD1 = CDK4-cyclinD1 (Homo sapiens, UniProt P11802); experiment: scanMAX KINOMEscan (Eurofins); type: binding; conditions: 1000 nM, read-out: Percent Control
Source text: as §1

CDKL5 = CDKL5 (Homo sapiens, UniProt O76039); experiment: scanMAX KINOMEscan (Eurofins); type: binding; conditions: read-out: Percent Control
Source text: as §1

DDR2 = DDR2 (Homo sapiens, UniProt Q16832); experiment: scanMAX KINOMEscan (Eurofins); type: binding; conditions: 1000 nM, read-out: Percent Control
Source text: as §1

EPHB3 = EPHB3 (Homo sapiens, UniProt P54753); experiment: scanMAX KINOMEscan (Eurofins); type: binding; conditions: read-out: Percent Control
Source text: as §1

FER = FER (Homo sapiens, UniProt P16591); experiment: scanMAX KINOMEscan (Eurofins); type: binding; conditions: 1000 nM, read-out: Percent Control
Source text: as §1

GRK1 = GRK1 (Homo sapiens, UniProt Q15835); experiment: scanMAX KINOMEscan (Eurofins); type: binding; conditions: read-out: Percent Control
Source text: as §1

HIPK3 = HIPK3 (Homo sapiens, UniProt Q9H422); experiment: scanMAX KINOMEscan (Eurofins); type: binding; conditions: 1000 nM, read-out: Percent Control
Source text: as §1

HPK1 = HPK1 (Homo sapiens, UniProt Q92918); experiment: scanMAX KINOMEscan (Eurofins); type: binding; conditions: read-out: Percent Control
Source text: as §1

[2] = target: JAK2(JH1domain-catalytic) (Homo sapiens, UniProt O60674); experiment: scanMAX KINOMEscan (Eurofins); type: binding; conditions: compound concentration 100 nM; Entrez JAK2; read-out: Percent Control
Source text: as §1

JNK2 = JNK2 (Homo sapiens, UniProt P45984); experiment: scanMAX KINOMEscan (Eurofins); type: binding; conditions: 1000 nM, read-out: Percent Control
Source text: as §1

KIT-autoinhibited = KIT-autoinhibited (Homo sapiens, UniProt P10721); experiment: scanMAX KINOMEscan (Eurofins); type: binding; conditions: 1000 nM, read-out: Percent Control
Source text: as §1

MAP4K3 = MAP4K3 (Homo sapiens, UniProt Q8IVH8); experiment: scanMAX KINOMEscan (Eurofins); type: binding; conditions: 1000 nM, read-out: Percent Control
Source text: as §1

MRCKA = MRCKA (Homo sapiens, UniProt Q5VT25); experiment: scanMAX KINOMEscan (Eurofins); type: binding; conditions: 1000 nM, read-out: Percent Control
Source text: as §1

MYLK2 = MYLK2 (Homo sapiens, UniProt Q9H1R3); experiment: scanMAX KINOMEscan (Eurofins); type: binding; conditions: 1000 nM, read-out: Percent Control
Source text: as §1

MYLK4 = MYLK4 (Homo sapiens, UniProt Q86YV6); experiment: scanMAX KINOMEscan (Eurofins); type: binding; conditions: compound concentration 100 nM; Entrez MYLK4; read-out: Percent Control
Source text: as §1

NEK2 = NEK2 (Homo sapiens, UniProt P51955); experiment: scanMAX KINOMEscan (Eurofins); type: binding; conditions: compound concentration 100 nM; Entrez NEK2; read-out: Percent Control
Source text: as §1

NIK = NIK (Homo sapiens, UniProt Q99558); experiment: scanMAX KINOMEscan (Eurofins); type: binding; conditions: compound concentration 100 nM; Entrez MAP3K14; read-out: Percent Control
Source text: as §1

PHKG2 = PHKG2 (Homo sapiens, UniProt P15735); experiment: scanMAX KINOMEscan (Eurofins); type: binding; conditions: 1000 nM, read-out: Percent Control
Source text: as §1

PLK3 = PLK3 (Homo sapiens, UniProt Q9H4B4); experiment: scanMAX KINOMEscan (Eurofins); type: binding; conditions: compound concentration 100 nM; Entrez PLK3; read-out: Percent Control
Source text: as §1

QSK = QSK (Homo sapiens, UniProt Q9Y2K2); experiment: scanMAX KINOMEscan (Eurofins); type: binding; conditions: read-out: Percent Control
Source text: as §1

[3] = target: RPS6KA4(Kin.Dom.1-N-terminal) (Homo sapiens, UniProt O75676); experiment: scanMAX KINOMEscan (Eurofins); type: binding; conditions: compound concentration 100 nM; Entrez RPS6KA4; read-out: Percent Control
Source text: as §1

SBK1 = SBK1 (Homo sapiens, UniProt Q52WX2); experiment: scanMAX KINOMEscan (Eurofins); type: binding; conditions: compound concentration 100 nM; Entrez SBK1; read-out: Percent Control
Source text: as §1

SRMS = SRMS (Homo sapiens, UniProt Q9H3Y6); experiment: scanMAX KINOMEscan (Eurofins); type: binding; conditions: compound concentration 100 nM; Entrez SRMS; read-out: Percent Control
Source text: as §1

KIT(V559D,V654A) = KIT(V559D,V654A) (Homo sapiens, UniProt P10721, V559D/V654A); experiment: biochemical; type: binding; conditions: read-out: Percent Control
RET(M918T) = RET(M918T) (Homo sapiens, UniProt P07949, M918T); experiment: biochemical; type: binding; conditions: 1000 nM, read-out: Percent Control
[4] = target: ABL1(T315I)-phosphorylated (Homo sapiens, UniProt P00519, T315I); experiment: biochemical; type: binding; conditions: read-out: Percent Control
EGFR(L858R,T790M) = EGFR(L858R,T790M) (Homo sapiens, UniProt P00533, L858R/T790M); experiment: biochemical; type: binding; conditions: read-out: Percent Control
FLT3(K663Q) = FLT3(K663Q) (Homo sapiens, UniProt P36888, K663Q); experiment: biochemical; type: binding; conditions: 1000 nM, read-out: Percent Control

Sequence of QSK (Q9Y2K2 whole entry): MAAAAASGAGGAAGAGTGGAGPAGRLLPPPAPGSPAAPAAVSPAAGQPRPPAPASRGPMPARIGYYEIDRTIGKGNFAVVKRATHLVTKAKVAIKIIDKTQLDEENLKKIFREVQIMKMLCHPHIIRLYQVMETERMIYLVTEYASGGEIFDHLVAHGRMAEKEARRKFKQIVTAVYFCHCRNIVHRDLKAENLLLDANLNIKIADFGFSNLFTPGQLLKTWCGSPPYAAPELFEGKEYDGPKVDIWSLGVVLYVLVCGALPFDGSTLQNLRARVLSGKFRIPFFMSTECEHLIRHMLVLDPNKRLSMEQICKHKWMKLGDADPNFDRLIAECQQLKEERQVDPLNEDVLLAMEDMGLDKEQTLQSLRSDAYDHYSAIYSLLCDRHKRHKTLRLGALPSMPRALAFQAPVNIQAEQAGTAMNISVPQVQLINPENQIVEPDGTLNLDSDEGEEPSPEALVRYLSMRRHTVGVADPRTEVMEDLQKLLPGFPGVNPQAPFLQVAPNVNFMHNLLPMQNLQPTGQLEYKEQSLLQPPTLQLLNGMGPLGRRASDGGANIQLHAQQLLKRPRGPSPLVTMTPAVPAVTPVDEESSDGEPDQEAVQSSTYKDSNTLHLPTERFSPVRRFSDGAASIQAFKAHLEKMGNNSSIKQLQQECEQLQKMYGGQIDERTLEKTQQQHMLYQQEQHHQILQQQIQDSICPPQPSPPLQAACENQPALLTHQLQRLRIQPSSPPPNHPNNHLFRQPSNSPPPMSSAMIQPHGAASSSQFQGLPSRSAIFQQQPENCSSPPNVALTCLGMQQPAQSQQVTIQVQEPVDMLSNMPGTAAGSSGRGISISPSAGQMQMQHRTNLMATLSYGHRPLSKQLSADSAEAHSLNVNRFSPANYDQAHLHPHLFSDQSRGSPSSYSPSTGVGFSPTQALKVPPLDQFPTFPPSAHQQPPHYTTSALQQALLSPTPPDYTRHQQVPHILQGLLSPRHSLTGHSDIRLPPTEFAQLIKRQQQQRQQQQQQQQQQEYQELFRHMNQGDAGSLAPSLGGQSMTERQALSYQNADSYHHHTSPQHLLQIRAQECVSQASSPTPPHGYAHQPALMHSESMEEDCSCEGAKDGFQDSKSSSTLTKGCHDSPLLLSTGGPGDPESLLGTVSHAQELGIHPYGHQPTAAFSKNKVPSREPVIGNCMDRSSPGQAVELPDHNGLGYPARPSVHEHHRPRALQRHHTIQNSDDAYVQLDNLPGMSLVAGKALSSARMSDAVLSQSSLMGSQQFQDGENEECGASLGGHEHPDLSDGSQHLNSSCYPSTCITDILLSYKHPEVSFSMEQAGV
Sequence of BMX (P51813 whole entry): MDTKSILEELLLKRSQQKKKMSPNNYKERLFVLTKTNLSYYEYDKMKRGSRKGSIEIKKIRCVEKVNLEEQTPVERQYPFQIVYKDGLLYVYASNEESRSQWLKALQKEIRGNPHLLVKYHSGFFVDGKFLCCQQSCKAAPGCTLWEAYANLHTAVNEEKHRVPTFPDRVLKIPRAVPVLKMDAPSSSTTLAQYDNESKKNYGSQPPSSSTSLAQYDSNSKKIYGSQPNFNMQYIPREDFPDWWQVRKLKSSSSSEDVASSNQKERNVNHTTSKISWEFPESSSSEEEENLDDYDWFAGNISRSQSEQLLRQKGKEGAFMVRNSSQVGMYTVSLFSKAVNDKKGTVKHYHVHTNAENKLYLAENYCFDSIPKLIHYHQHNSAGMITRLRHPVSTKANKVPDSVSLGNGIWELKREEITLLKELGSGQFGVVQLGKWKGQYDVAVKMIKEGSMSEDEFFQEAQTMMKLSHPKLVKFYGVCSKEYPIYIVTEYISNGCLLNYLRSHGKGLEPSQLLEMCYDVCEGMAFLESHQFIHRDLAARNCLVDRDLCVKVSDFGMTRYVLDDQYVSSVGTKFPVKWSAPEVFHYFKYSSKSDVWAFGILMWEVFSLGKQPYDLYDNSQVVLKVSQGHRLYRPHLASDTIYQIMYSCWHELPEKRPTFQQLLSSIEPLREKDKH
Sequence of AKT3 (Q9Y243 whole entry): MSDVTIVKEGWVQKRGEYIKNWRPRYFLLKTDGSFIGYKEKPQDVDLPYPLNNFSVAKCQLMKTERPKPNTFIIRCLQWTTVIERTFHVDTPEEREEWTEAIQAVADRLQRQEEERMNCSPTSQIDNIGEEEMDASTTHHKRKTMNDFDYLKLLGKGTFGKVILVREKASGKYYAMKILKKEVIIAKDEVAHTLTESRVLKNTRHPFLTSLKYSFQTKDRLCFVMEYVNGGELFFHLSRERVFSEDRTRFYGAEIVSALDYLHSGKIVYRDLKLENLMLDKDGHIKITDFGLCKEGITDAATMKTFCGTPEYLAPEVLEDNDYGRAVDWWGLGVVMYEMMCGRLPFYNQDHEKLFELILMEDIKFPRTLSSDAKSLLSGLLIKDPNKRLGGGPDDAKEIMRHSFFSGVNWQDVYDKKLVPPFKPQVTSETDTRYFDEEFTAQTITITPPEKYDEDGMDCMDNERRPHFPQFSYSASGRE
Sequence of EPHB3 (P54753 34-998): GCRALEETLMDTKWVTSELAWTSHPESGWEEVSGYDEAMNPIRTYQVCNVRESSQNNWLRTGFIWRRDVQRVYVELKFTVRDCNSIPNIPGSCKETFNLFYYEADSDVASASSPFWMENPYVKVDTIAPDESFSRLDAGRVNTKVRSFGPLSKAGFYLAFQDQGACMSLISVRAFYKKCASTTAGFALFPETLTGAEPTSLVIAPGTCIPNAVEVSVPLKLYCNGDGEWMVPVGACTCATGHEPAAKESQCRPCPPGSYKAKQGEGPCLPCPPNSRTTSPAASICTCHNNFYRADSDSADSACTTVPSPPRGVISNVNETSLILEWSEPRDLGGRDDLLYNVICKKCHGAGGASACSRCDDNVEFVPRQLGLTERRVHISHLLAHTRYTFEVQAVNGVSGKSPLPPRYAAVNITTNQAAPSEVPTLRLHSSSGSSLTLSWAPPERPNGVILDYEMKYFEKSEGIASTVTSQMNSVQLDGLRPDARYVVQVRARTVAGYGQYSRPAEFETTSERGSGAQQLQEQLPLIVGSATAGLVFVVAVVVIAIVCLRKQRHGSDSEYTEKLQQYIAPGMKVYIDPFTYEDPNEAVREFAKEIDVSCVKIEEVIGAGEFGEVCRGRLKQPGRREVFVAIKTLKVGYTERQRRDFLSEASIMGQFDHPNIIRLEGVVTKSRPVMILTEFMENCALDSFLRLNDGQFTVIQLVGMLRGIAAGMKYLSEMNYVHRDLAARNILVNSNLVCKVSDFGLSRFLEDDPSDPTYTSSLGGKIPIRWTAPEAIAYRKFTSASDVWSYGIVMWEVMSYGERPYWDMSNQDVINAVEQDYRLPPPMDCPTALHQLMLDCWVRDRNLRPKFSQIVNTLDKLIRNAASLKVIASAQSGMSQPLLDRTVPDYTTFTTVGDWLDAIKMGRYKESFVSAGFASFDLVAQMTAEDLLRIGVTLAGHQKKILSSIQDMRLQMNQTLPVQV
Sequence of CDKL5 (O76039 whole entry): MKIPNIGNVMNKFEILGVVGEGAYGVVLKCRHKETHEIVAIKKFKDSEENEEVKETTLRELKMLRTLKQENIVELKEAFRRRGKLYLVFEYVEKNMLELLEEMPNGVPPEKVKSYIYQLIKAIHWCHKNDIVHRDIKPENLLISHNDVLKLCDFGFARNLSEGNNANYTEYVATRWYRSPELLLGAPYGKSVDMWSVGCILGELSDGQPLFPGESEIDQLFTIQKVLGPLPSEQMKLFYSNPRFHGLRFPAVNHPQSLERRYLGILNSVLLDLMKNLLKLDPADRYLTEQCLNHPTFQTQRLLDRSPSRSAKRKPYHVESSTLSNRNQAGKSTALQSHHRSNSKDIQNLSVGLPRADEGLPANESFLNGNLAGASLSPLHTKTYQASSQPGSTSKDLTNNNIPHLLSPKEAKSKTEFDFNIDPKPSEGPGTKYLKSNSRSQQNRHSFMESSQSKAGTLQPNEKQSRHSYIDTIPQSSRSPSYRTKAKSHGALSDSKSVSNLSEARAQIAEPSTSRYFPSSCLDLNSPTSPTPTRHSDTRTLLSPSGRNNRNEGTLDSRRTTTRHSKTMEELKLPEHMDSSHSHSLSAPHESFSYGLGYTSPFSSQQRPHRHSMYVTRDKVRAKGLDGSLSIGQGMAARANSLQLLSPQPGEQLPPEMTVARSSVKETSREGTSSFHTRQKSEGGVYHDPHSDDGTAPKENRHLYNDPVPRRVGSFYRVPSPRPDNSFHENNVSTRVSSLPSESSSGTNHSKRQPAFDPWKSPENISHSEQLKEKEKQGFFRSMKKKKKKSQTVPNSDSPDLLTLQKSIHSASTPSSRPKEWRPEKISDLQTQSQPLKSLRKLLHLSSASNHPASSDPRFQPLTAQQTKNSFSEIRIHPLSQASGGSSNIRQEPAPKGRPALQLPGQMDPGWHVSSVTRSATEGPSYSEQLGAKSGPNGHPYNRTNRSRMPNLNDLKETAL
Sequence of GRK1 (Q15835 whole entry): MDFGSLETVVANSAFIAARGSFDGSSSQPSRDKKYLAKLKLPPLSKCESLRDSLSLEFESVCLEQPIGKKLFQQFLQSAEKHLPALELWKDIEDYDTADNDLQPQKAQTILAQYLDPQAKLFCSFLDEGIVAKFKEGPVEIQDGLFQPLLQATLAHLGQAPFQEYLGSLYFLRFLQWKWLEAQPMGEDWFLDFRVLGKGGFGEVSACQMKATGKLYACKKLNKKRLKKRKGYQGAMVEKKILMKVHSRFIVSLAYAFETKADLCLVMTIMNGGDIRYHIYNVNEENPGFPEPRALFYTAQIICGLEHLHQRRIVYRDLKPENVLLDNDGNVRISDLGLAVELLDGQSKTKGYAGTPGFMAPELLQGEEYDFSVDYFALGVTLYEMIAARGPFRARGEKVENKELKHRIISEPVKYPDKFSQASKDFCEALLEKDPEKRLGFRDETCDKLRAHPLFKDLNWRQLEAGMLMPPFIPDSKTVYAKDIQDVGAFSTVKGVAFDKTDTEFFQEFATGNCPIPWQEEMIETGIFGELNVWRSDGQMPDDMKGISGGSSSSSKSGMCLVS

Q: With `CN1C(=O)[C@@H](N2CCc3c(nn(Cc4ccccc4)c3C(N)=O)C2=O)COc2cc(Cl)ccc21` [Compound 10, (S)-2-benzyl-6-(8-chloro-5-methyl-4-oxo-2,3,4,5-tetrahydrobenzo[b][1,4]oxazepin-3-yl)-7-oxo-4,5,6,7-tetrahydro-2H-pyrazolo[3,4-c]pyridine-3-carboxamide] as the compound, how does the AUC ([1]; 0.1 mg/kg, Mouse PK IV, 0.10 mg/kg, read-out: AUCiv) read?
A: 94.7 ng·h/mL

Q: And the concentration at 5 min ([1]; 0.1 mg/kg, Mouse PK IV, 0.10 mg/kg, read-out: C5min)?
A: 44.5 ng/mL

Q: And the Cmax ([1]; Mouse PK PO, 1.0 mg/kg)?
A: 11.8 ng/mL

Q: What about the Tmax ([1]; Mouse PK PO, 1.0 mg/kg) of the same compound?
A: 30 min

Q: And the AUC ([1]; Mouse PK PO, 1.0 mg/kg, read-out: AUCpo)?
A: 30.9 ng·h/mL

Q: And the bioavailability ([1]; mouse, PO 1.0 mg/kg vs IV 0.10 mg/kg)?
A: 4%

Q: What about the remaining binding at 1 µM (AKT3; 1000 nM) of the same compound?
A: 100%

Q: And the remaining binding at 0.1 µM (AKT3; compound concentration 100 nM, Entrez AKT3)?
A: 100%

Q: What about the remaining binding at 1 µM (BMX; 1000 nM) of the same compound?
A: 100%

Q: What about the remaining binding at 0.1 µM (BMX; compound concentration 100 nM, Entrez BMX) of the same compound?
A: 100%

Q: What about the remaining binding at 1 µM (CAMK2B) of the same compound?
A: 80%

Q: What about the remaining binding at 1 µM (CDK4-cyclinD1) of the same compound?
A: 72%

Q: And the remaining binding at 1 µM (CDKL5; 1000 nM)?
A: 100%

Q: What about the remaining binding at 0.1 µM (CDKL5; compound concentration 100 nM, Entrez CDKL5) of the same compound?
A: 100%

Q: What about the remaining binding at 1 µM (DDR2) of the same compound?
A: 86%

Q: What about the remaining binding at 1 µM (EPHB3; 1000 nM) of the same compound?
A: 100%

Q: What about the remaining binding at 0.1 µM (EPHB3; compound concentration 100 nM, Entrez EPHB3) of the same compound?
A: 71%

Q: And the remaining binding at 1 µM (FER)?
A: 90%

Q: And the remaining binding at 1 µM (GRK1; 1000 nM)?
A: 100%

Q: What about the remaining binding at 0.1 µM (GRK1; compound concentration 100 nM, Entrez GRK1) of the same compound?
A: 100%

Q: What about the remaining binding at 1 µM (HIPK3) of the same compound?
A: 94%

Q: And the remaining binding at 1 µM (HPK1; 1000 nM)?
A: 100%

Q: And the remaining binding at 0.1 µM (HPK1; compound concentration 100 nM, Entrez MAP4K1)?
A: 99%

Q: And the remaining binding at 0.1 µM [2]?
A: 81%

Q: And the remaining binding at 1 µM (JNK2)?
A: 89%

Q: What about the remaining binding at 1 µM (KIT-autoinhibited) of the same compound?
A: 97%

Q: What about the remaining binding at 1 µM (MAP4K3) of the same compound?
A: 92%

Q: And the remaining binding at 1 µM (MRCKA)?
A: 88%

Q: What about the remaining binding at 1 µM (MYLK2) of the same compound?
A: 84%

Q: What about the remaining binding at 0.1 µM (MYLK4) of the same compound?
A: 92%

Q: And the remaining binding at 0.1 µM (NEK2)?
A: 82%

Q: And the remaining binding at 0.1 µM (NIK)?
A: 80%

Q: What about the remaining binding at 1 µM (PHKG2) of the same compound?
A: 78%

Q: And the remaining binding at 0.1 µM (PLK3)?
A: 86%

Q: And the remaining binding at 1 µM (QSK; 1000 nM)?
A: 98%

Q: What about the remaining binding at 0.1 µM (QSK; compound concentration 100 nM, Entrez KIAA0999) of the same compound?
A: 90%

Q: And the remaining binding at 0.1 µM [3]?
A: 81%

Q: What about the remaining binding at 0.1 µM (SBK1) of the same compound?
A: 68%

Q: What about the remaining binding at 0.1 µM (SRMS) of the same compound?
A: 90%

Q: And the remaining activity at 1 µM (KIT(V559D,V654A))?
A: 92%

Q: What about the remaining activity at 1 µM (RET(M918T)) of the same compound?
A: 96%

Q: What about the remaining activity at 1 µM [4] of the same compound?
A: 99%

Q: What about the remaining activity at 1 µM (EGFR(L858R,T790M)) of the same compound?
A: 100%

Q: And the remaining activity at 1 µM (FLT3(K663Q))?
A: 100%
